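Values below derive from 48-hour exposures of cells grown in 96-well plates, with endpoints linearly interpolated between the two concentrations bracketing the appropriate inhibition level. Definition used: TGI = concentration required for complete inhibition of growth.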 Where a SMILES comes first, the peptide text is derived from it. [ ]: non-standard residue; d: D form. The star is where a group is joined. Chg = N[CH](C(=O)O)C1CCCCC1; Cbz = O=C(OCc1ccccc1)*; OBn = c1ccc(CO*)cc1
How the values were obtained:
Experiment in all cases: NCI-60 cell line screen, 48 h
786-0 renal = system: 786-0 renal
A549 NSCLC = system: A549 NSCLC
ACHN renal = system: ACHN renal
CAKI-1 renal = system: CAKI-1 renal
CCRF-CEM leukemia = system: CCRF-CEM leukemia
COLO 205 colon = system: COLO 205 colon
DU-145 prostate = system: DU-145 prostate
EKVX NSCLC = system: EKVX NSCLC
HCC-2998 colon = system: HCC-2998 colon
HCT-116 colon = system: HCT-116 colon
HCT-15 colon = system: HCT-15 colon
HL-60(TB) leukemia = system: HL-60(TB) leukemia
HOP-62 NSCLC = system: HOP-62 NSCLC
HOP-92 NSCLC = system: HOP-92 NSCLC
HS 578T breast = system: HS 578T breast
HT29 colon = system: HT29 colon
IGROV1 ovarian = system: IGROV1 ovarian
K-562 leukemia = system: K-562 leukemia
KM12 colon = system: KM12 colon
LOX IMVI melanoma = system: LOX IMVI melanoma
M14 melanoma = system: M14 melanoma
MALME-3M melanoma = system: MALME-3M melanoma
MCF7 breast = system: MCF7 breast
MDA-MB-231 breast = system: MDA-MB-231 breast
MDA-MB-435 = system: MDA-MB-435
MDA-N = system: MDA-N
MOLT-4 leukemia = system: MOLT-4 leukemia
NCI-H226 lung = system: NCI-H226 lung
NCI-H23 lung = system: NCI-H23 lung
NCI-H460 lung = system: NCI-H460 lung
NCI-H522 lung = system: NCI-H522 lung
NCI/ADR-RES ovarian = system: NCI/ADR-RES ovarian
OVCAR-3 ovarian = system: OVCAR-3 ovarian
OVCAR-4 ovarian = system: OVCAR-4 ovarian
OVCAR-5 ovarian = system: OVCAR-5 ovarian
OVCAR-8 ovarian = system: OVCAR-8 ovarian
PC-3 prostate = system: PC-3 prostate
RPMI-8226 leukemia = system: RPMI-8226 leukemia
RXF 393 renal = system: RXF 393 renal
SF-268 CNS = system: SF-268 CNS
SF-295 CNS = system: SF-295 CNS
SF-539 CNS = system: SF-539 CNS
SK-MEL-2 melanoma = system: SK-MEL-2 melanoma
SK-MEL-28 melanoma = system: SK-MEL-28 melanoma
SK-MEL-5 melanoma = system: SK-MEL-5 melanoma
SK-OV-3 ovarian = system: SK-OV-3 ovarian
SN12C renal = system: SN12C renal
SNB-19 CNS = system: SNB-19 CNS
SNB-75 CNS = system: SNB-75 CNS
SR leukemia = system: SR leukemia
SW-620 colon = system: SW-620 colon
T-47D breast = system: T-47D breast
TK-10 renal = system: TK-10 renal
U251 CNS = system: U251 CNS
UACC-257 melanoma = system: UACC-257 melanoma
UACC-62 melanoma = system: UACC-62 melanoma
UO-31 renal = system: UO-31 renal
A498 renal = system: A498 renal

In the case of `COC(=O)C(NC(=O)C(CC(=O)OCc1ccccc1)NC(=O)OCc1ccccc1)C1CCCCC1` (stereo not given) (Cbz-Asp(OBn)-[Chg]-OMe; configuration not given here), the TGI (786-0 renal) is reported as over 100 µM, the TGI (A549 NSCLC) is reported as over 100 µM and the TGI (ACHN renal) is reported as over 100 µM. It also gave a TGI (CAKI-1 renal) of over 100 µM, a TGI (CCRF-CEM leukemia) of over 100 µM and a TGI (COLO 205 colon) of over 100 µM. The TGI (DU-145 prostate) was over 100 µM, the TGI (EKVX NSCLC) was over 100 µM and the TGI (HCC-2998 colon) was over 100 µM. For the same compound, the TGI (HCT-116 colon) was over 100 µM, the TGI (HCT-15 colon) was over 100 µM and the TGI (HL-60(TB) leukemia) was over 100 µM. The TGI (HOP-62 NSCLC) was over 100 µM, the TGI (HOP-92 NSCLC) was over 100 µM and the TGI (HS 578T breast) was 81.3 µM. It also gave a TGI (HT29 colon) of over 100 µM, a TGI (IGROV1 ovarian) of over 100 µM and a TGI (K-562 leukemia) of over 100 µM. The TGI (KM12 colon) was over 100 µM, the TGI (LOX IMVI melanoma) was over 100 µM and the TGI (M14 melanoma) was over 100 µM. It also gave a TGI (MALME-3M melanoma) of over 100 µM, a TGI (MCF7 breast) of over 100 µM and a TGI (MDA-MB-231 breast) of over 100 µM. For the same compound, the TGI (MDA-MB-435) was over 100 µM, the TGI (MDA-N) was over 100 µM and the TGI (MOLT-4 leukemia) was over 100 µM. The TGI (NCI-H226 lung) was over 100 µM, the TGI (NCI-H23 lung) was over 100 µM and the TGI (NCI-H460 lung) was over 100 µM. It also gave a TGI (NCI-H522 lung) of over 100 µM, a TGI (NCI/ADR-RES ovarian) of over 100 µM and a TGI (OVCAR-3 ovarian) of over 100 µM. It also gave a TGI (OVCAR-4 ovarian) of over 100 µM, a TGI (OVCAR-5 ovarian) of over 100 µM and a TGI (OVCAR-8 ovarian) of over 100 µM. It also gave a TGI (PC-3 prostate) of over 100 µM, a TGI (RPMI-8226 leukemia) of over 100 µM and a TGI (RXF 393 renal) of over 100 µM. For the same compound, the TGI (SF-268 CNS) was over 100 µM, the TGI (SF-295 CNS) was over 100 µM and the TGI (SF-539 CNS) was over 100 µM. It also gave a TGI (SK-MEL-2 melanoma) of over 100 µM, a TGI (SK-MEL-28 melanoma) of over 100 µM and a TGI (SK-MEL-5 melanoma) of over 100 µM. It also gave a TGI (SK-OV-3 ovarian) of over 100 µM, a TGI (SN12C renal) of over 100 µM and a TGI (SNB-19 CNS) of over 100 µM. It also gave a TGI (SNB-75 CNS) of over 100 µM, a TGI (SR leukemia) of over 100 µM and a TGI (SW-620 colon) of over 100 µM. It also gave a TGI (T-47D breast) of over 100 µM, a TGI (TK-10 renal) of over 100 µM and a TGI (U251 CNS) of over 100 µM. For the same compound, the TGI (UACC-257 melanoma) was over 100 µM, the TGI (UACC-62 melanoma) was over 100 µM and the TGI (UO-31 renal) was over 100 µM.

`COP(=O)(OC)/C(=C\C1=CN(C(c2ccccc2)(c2ccccc2)c2ccccc2)CN1)NC=O` gave a TGI (A498 renal) of 32.2 µM, a TGI (A549 NSCLC) of 30.5 µM and a TGI (ACHN renal) of 28.9 µM. It also gave a TGI (CAKI-1 renal) of 39.5 µM, a TGI (COLO 205 colon) of 40.5 µM and a TGI (DU-145 prostate) of 35.2 µM. The TGI (HCC-2998 colon) was 38.4 µM, the TGI (HCT-116 colon) was 29.6 µM and the TGI (HCT-15 colon) was 33.1 µM. For the same compound, the TGI (HL-60(TB) leukemia) was 50.9 µM, the TGI (HOP-62 NSCLC) was 31.3 µM and the TGI (HOP-92 NSCLC) was 23 µM. The TGI (HS 578T breast) was 51.2 µM, the TGI (HT29 colon) was 28.2 µM and the TGI (IGROV1 ovarian) was 49.2 µM. It also gave a TGI (K-562 leukemia) of over 100 µM, a TGI (LOX IMVI melanoma) of 26.3 µM and a TGI (M14 melanoma) of 43.9 µM. It also gave a TGI (MDA-MB-231 breast) of 33.9 µM, a TGI (MDA-MB-435) of 23.1 µM and a TGI (MDA-N) of 28.4 µM. For the same compound, the TGI (MOLT-4 leukemia) was 30.6 µM, the TGI (NCI-H226 lung) was 39.5 µM and the TGI (NCI-H23 lung) was 36.3 µM. For the same compound, the TGI (NCI-H460 lung) was 27 µM, the TGI (NCI-H522 lung) was 33.5 µM and the TGI (NCI/ADR-RES ovarian) was 29.9 µM. For the same compound, the TGI (OVCAR-3 ovarian) was 29.8 µM, the TGI (OVCAR-4 ovarian) was 39.6 µM and the TGI (OVCAR-5 ovarian) was 31.8 µM. The TGI (OVCAR-8 ovarian) was 54.8 µM, the TGI (PC-3 prostate) was 19.7 µM and the TGI (RPMI-8226 leukemia) was 39.9 µM. It also gave a TGI (SF-295 CNS) of 30.2 µM, a TGI (SK-MEL-2 melanoma) of 30.4 µM and a TGI (SK-MEL-28 melanoma) of 32.5 µM. The TGI (SK-MEL-5 melanoma) was 29.6 µM, the TGI (SK-OV-3 ovarian) was 33.1 µM and the TGI (SN12C renal) was 36.3 µM. It also gave a TGI (SNB-19 CNS) of 43.4 µM, a TGI (SNB-75 CNS) of 39.8 µM and a TGI (SR leukemia) of 33.7 µM. It also gave a TGI (SW-620 colon) of 42.4 µM, a TGI (T-47D breast) of 49.2 µM and a TGI (TK-10 renal) of 49.7 µM. The TGI (U251 CNS) was 29.8 µM, the TGI (UACC-257 melanoma) was 34.1 µM and the TGI (UO-31 renal) was 29.1 µM.

Compound `OC[C@H]1C[C@@H]2Cc3ccccc3N2N1` has a TGI (786-0 renal) of over 100 µM, a TGI (A498 renal) of over 100 µM and a TGI (A549 NSCLC) of over 100 µM. The TGI (ACHN renal) was over 100 µM, the TGI (CAKI-1 renal) was over 100 µM and the TGI (CCRF-CEM leukemia) was over 100 µM. It also gave a TGI (COLO 205 colon) of over 100 µM, a TGI (DU-145 prostate) of over 100 µM and a TGI (EKVX NSCLC) of over 100 µM. It also gave a TGI (HCC-2998 colon) of over 100 µM, a TGI (HCT-116 colon) of over 100 µM and a TGI (HCT-15 colon) of over 100 µM. It also gave a TGI (HL-60(TB) leukemia) of over 100 µM, a TGI (HOP-62 NSCLC) of over 100 µM and a TGI (HOP-92 NSCLC) of over 100 µM. For the same compound, the TGI (HS 578T breast) was over 100 µM, the TGI (HT29 colon) was over 100 µM and the TGI (IGROV1 ovarian) was over 100 µM. The TGI (K-562 leukemia) was over 100 µM, the TGI (KM12 colon) was over 100 µM and the TGI (LOX IMVI melanoma) was over 100 µM. It also gave a TGI (M14 melanoma) of over 100 µM, a TGI (MALME-3M melanoma) of over 100 µM and a TGI (MDA-MB-231 breast) of over 100 µM. For the same compound, the TGI (MDA-MB-435) was over 100 µM, the TGI (MDA-N) was over 100 µM and the TGI (MOLT-4 leukemia) was over 100 µM. It also gave a TGI (NCI-H226 lung) of over 100 µM, a TGI (NCI-H23 lung) of over 100 µM and a TGI (NCI-H460 lung) of over 100 µM. The TGI (NCI-H522 lung) was over 100 µM, the TGI (NCI/ADR-RES ovarian) was over 100 µM and the TGI (OVCAR-3 ovarian) was over 100 µM. It also gave a TGI (OVCAR-4 ovarian) of over 100 µM, a TGI (OVCAR-5 ovarian) of over 100 µM and a TGI (OVCAR-8 ovarian) of over 100 µM. For the same compound, the TGI (PC-3 prostate) was over 100 µM, the TGI (RXF 393 renal) was over 100 µM and the TGI (SF-268 CNS) was over 100 µM. The TGI (SF-295 CNS) was over 100 µM, the TGI (SF-539 CNS) was over 100 µM and the TGI (SK-MEL-2 melanoma) was over 100 µM. It also gave a TGI (SK-MEL-28 melanoma) of over 100 µM, a TGI (SK-MEL-5 melanoma) of over 100 µM and a TGI (SK-OV-3 ovarian) of over 100 µM. It also gave a TGI (SN12C renal) of over 100 µM, a TGI (SNB-19 CNS) of over 100 µM and a TGI (SNB-75 CNS) of over 100 µM. For the same compound, the TGI (SR leukemia) was over 100 µM, the TGI (SW-620 colon) was over 100 µM and the TGI (T-47D breast) was over 100 µM. For the same compound, the TGI (TK-10 renal) was over 100 µM, the TGI (U251 CNS) was over 100 µM and the TGI (UACC-257 melanoma) was over 100 µM. It also gave a TGI (UACC-62 melanoma) of over 100 µM.

— PubChem BioAssay (NCI)
